Measurements reported in patent US10238689B2, “Methods for combating bacterial infections by killing persister cells with mitomycin C and/or cisplatin” (THE PENN STATE RESEARCH FOUNDATION, priority 2015, dated 2019).
Entries after “also recorded” stand apart in the source; their conditions may differ.

Experiments:
[1] = tested on: gDNA (rrsG and murB) of E. coli K-12 BW25113/pCA24N; assay: qPCR of gDNA crosslinking in cells (in vivo); assay type: cell-based, Escherichia coli; conditions: MMC 100 μg/mL 1 h
Description: Overnight cultures (16 h) of E. coli K-12 BW25113/pCA24N grown in LB were diluted 1:1000 in buffered LB and grown to the desired turbidity. For exponential phase cells (i.e., non-persisters), cultures were grown to a turbidity of 2.0 at 600 nm. For rifampicin-induced persisters, cultures were grown to a turbidity of 0.8 at 600 nm, exposed to rifampicin (100 μg/mL) for 30 min, centrifuged, and resuspended in fresh medium to remove the rifampicin. Non-persister and rifampicin-induced persister cultures were treated with MMC (100 μg/mL) for 1 h. gDNA was extracted, using an UltraClean Microbial DNA Isolation Kit (MO BIO Laboratories, Carlsbad, Calif., USA), from samples taken before and after MMC treatment and 100 ng of DNA was used for qPCR of rrsG and murB using the GoTaq qPCR Master Mix (Promega, Madison, Wis., USA) and the StepOne Real-Time PCR System (Applied Biosystems, Foster City, Calif., USA) (primers are shown in Table 2). As a positive control, 3 μg of gDNA from BW25113 non-persisters was crosslinked in vitro with 500 μg/mL (1.5 mM) MMC in 0.2 mM EDTA, 50 mM NaCl, and 5 mM Tris (pH=7.6) with Na2S2O4 added six times at 10 min intervals to reach a final concentration of 2.25 mM (1.5× molarity of MMC). The in vitro crosslinking reaction was performed anaerobically on ice and the reaction was stopped by exposure to air.

E. coli K-12 [2] = assay: Planktonic antibiotic killing assay; assay type: cell-based, Escherichia coli; conditions: for fold more effective compared to ciprofloxacin: MMC 10 μg/mL vs ciprofloxacin 5 μg/mL
Description: (§1) In order to obtain exponential and mid-stationary phase cultures in LB, buffered LB or TSB, overnight cultures (16 h) were diluted 1:1000 in fresh medium and grown to the desired turbidity (i.e., a turbidity below 2 at 600 nm for exponential phase and a turbidity of 3 to 4 at 600 nm for mid-stationary phase). Late-stationary phase cultures in LB or buffered LB were obtained by growing overnight cultures (16 h). In order to obtain exponential and late-stationary phase cultures in M9-glucose, overnight cultures (16 h) were washed diluted 1:1000 in M9-glucose and grown for the desired period of time (i.e., a turbidity of 0.4 at 600 nm for exponential phase and 24 h of growth for late-stationary phase). Anaerobically grown cultures were maintained with ˜20% CO2, ˜79% N2, and ˜1% H2. In order to obtain rifampicin-induced persister cultures in buffered LB, overnight cultures (16 h) were diluted 1:1000 in fresh medium and grown to a turbidity of 0.8 at 600 nm. Cultures were exposed to rifampicin (100 μg/mL) for 30 min, centrifuged, and resuspended in fresh medium to remove the rifampicin.

E. coli O157:H7 (EHEC) = assay: Planktonic antibiotic killing assay; assay type: cell-based, Escherichia coli; conditions: MMC 10 μg/mL, 3 h; for cell viability after treatment: rich medium (buffered LB)
Description: as §1

EHEC biofilm cultures = conditions: M9-glucose, 24 h treatment, MMC 10 μg/mL, ciprofloxacin 5 μg/mL
[3] = tested on: clinical strains of P. aeruginosa; assay: Persister cell assay, multi-drug resistant clinical strains; assay type: cell-based, Pseudomonas aeruginosa; conditions: cisplatin 100 μg/mL
Description: For the persister cell assay of the pathogens, stationary-phase cells were used. Cultures of EHEC, P. aeruginosa, and S. aureus were prepared by a 1:1000 dilution of overnight grown cultures (LB medium for EHEC and P. aeruginosa, TSB for S. aureus) into fresh buffered LB medium for EHEC, M9-glucose for P. aeruginosa, and TSB for S. aureus and re-growing the cells to a turbidity of 3 to 4 at 600 nm for EHEC and S. aureus and growing for 24 h for P. aeruginosa. […]

[4] = tested on: enterohemorrhagic E. coli (EHEC); assay: Persister cell assay of pathogens (stationary phase); assay type: cell-based, Escherichia coli; conditions: stationary-phase cells, buffered LB; cisplatin 500 μg/mL, 5×MIC, 3 h
Description: For the persister cell assay of the pathogens, stationary-phase cells were used. Cultures of EHEC, P. aeruginosa, and S. aureus were prepared by a 1:1000 dilution of overnight grown cultures (LB medium for EHEC and P. aeruginosa, TSB for S. aureus) into fresh buffered LB medium for EHEC, M9-glucose for P. aeruginosa, and TSB for S. aureus and re-growing the cells to a turbidity of 3 to 4 at 600 nm for EHEC and S. aureus and growing for 24 h for P. aeruginosa. Stationary-phase cultures of EHEC (buffered LB medium), P. aeruginosa (M9-glucose medium), and S. aureus (TSB medium) were then treated with cisplatin (500 μg/mL for EHEC and S. aureus, 250 μg/mL for P. aeruginosa) for 3 h (250 mL flask, 250 rpm).

E. coli K-12 [5] = assay type: cell-based, Escherichia coli
Description: Persister cell killing and eradication assays (planktonic cells). For the time course experiment, late stationary phase cells of E. coli K-12 (wild-type and isogenic mutants) were prepared by growing cells overnight (16 h) in LB medium buffered with 100 mM KPO4 at pH 7.0 (buffered LB). A 1 mL culture was used for a drop (10 μL×3) assay to check cell viability at 0 h (i.e., before antibiotic treatment). […] At 1 h intervals, 1 mL culture was centrifuged at 10,000 rpm for 3 min, the supernatant was discarded, the cells were resuspended in 1 mL of normal saline (0.85% NaCl), and the cell suspension was serially diluted for a drop assay to check cell viability.
To test for eradication, the wild-type E. coli K-12 cells were treated with cisplatin for 12 h, a 1 mL sample was centrifuged, the cell pellet was resuspended in 150 μL of normal saline, and the cells were spread on LB agar to check cell viability. Another 1 mL culture was diluted 1:10 with fresh buffered LB and the cells were incubated to allow any remaining cells to replicate. After 12 h, 18 h, and 24 h, 1 mL samples were centrifuged, resuspended in 150 μL of normal saline and spread on LB agar plates to check cell viability. At least two independent cultures were used.

Question: What does the source list for `CO[C@@]12[C@H](COC(N)=O)C3=C(C(=O)C(C)=C(N)C3=O)N1C[C@@H]1N[C@@H]12` [MMC, mitomycin C]?
Answer: Fold Change in amplifiable DNA ([1]; Non-persisters, murB): −5.13±0.14 fold; Fold Change in amplifiable DNA ([1]; Non-persisters, rrsG): −5.95±0.20 fold; Fold Change in amplifiable DNA ([1]; Persisters, murB): −5.99±0.50 fold; Fold Change in amplifiable DNA ([1]; Persisters, rrsG): −5.01±0.51 fold; survival (E. coli K-12 [2]; anaerobic, late-stationary phase cells in rich medium (LB)): eradication beyond the limit of detection; also recorded: eradicated; susceptibility of exponential-phase cultures (E. coli K-12 [2]; exponential phase, M9-glucose): similarly susceptible; fold more effective compared to ciprofloxacin (E. coli K-12 [2]; exponentially-growing cells, buffered LB, 3 h): 2,300 fold; time course of killing (death curve) (E. coli K-12 [2]; late-stationary phase culture, buffered LB): does not show the bi-phasic death curve; persistence (surviving population) (E. coli K-12 [2]; late-stationary phase, M9-glucose, MMC 10, ciprofloxacin 5, gentamicin 10 μg/mL, 3 h): eradication beyond the limit of detection; also recorded: eradicated cells; fold more effective compared to ciprofloxacin (E. coli K-12 [2]; mid-stationary-phase cells, buffered LB, 3 h): 150,000 fold; effectiveness against rifampicin-induced persister cells (E. coli K-12 [2]; rifampicin pretreatment 100 μg/mL 30 min, buffered LB, MMC 10 μg/mL, ciprofloxacin 5 μg/mL, 3 h): highly effective; cell viability after treatment (E. coli O157:H7 (EHEC); exponential phase): eradicating; cells survived (E. coli O157:H7 (EHEC); late-stationary phase, M9-glucose, ciprofloxacin 5 μg/mL): eradicated; cell viability after treatment (E. coli O157:H7 (EHEC); mid-stationary phase): eradicating; cells surviving (EHEC biofilm cultures): eradicated

Question: What does the source list for `N.N.[Cl][Pt][Cl]` [cisplatin, cis-diamminodichloroplatinum(II)]?
Answer: survival ([3]; strain INP-37): 0.05±0.06%; survival ([3]; strain INP-57M): 0.01±0.00%; survival ([3]; strain INP-64M): 0.02±0.00%; survival ([3]; strain RME-101): 0.02±0.03%; cell viability after treatment [4]: eradicated; eradication of persister cells (colonies from 1 mL of culture) (E. coli K-12 [5]; 5×MIC of cisplatin for 12 h): completely eradicated; killing of katE or katG catalase mutants compared to the wild-type strain (E. coli K-12 [5]; 8 h treatment with 5×MIC of cisplatin): did not find any significant differences in killing; time course dependent killing (E. coli K-12 [5]; late stationary phase (16 h of growth), buffered LB, cisplatin 500 μg/mL (5×MIC), ciprofloxacin 5 μg/mL (100×MIC), 8 h): nearly eradicated; also recorded: eradicates late stationary-phase E. coli K-12 cells; regrowth when cisplatin is withdrawn (E. coli K-12 [5]; treated culture inoculated into fresh medium, 12 h, 18 h, and 24 h): no increase in turbidity or colonies
